2 compounds from patent publication US20190203253A1, “METHODS OF IDENTIFYING AND TREATING CANCER PATIENTS WITH AN EPHB6 DEFICIENCY” (University of Saskatchewan, priority 2016, published 2019) can be followed below.

The subject of assay [1] is co-cultured MDA-pc3 and MDA-B6 cells. Nature of the assay: Co-cultured colour-coded cells with MET inhibitor (flow cytometry). Type of assay: cell-based, human. Particulars: 0.3 μM, 24, 32 and 48 hours, 1:1 co-culture (FIG. 11). Here is the method:
FIG. 11. MET inhibition preferentially suppresses EPHB6-deficient cells. Hygro-selected combinations of MDA-B6-GFP and MDA-pc3-RFP (A and B) or MDA-B6-RFP and MDA-pc3-GFP (C and D) cells were seeded in 1:1 ratio and treated with 0.3 μM concentration of Met receptor inhibitor, ARQ197, or with a matching volume of DMSO, as a solvent control for 24, 32, and 48 hours. Treated cells were analyzed by flow cytometry. Bar graphs are based on the analyses of triplicates and represent a suppression of ARQ197-treated cell populations as a percentage relative to matching DMSO controls. (*) Statistical analyses: Student's t test, P<0.05 for indicated points. All analyses represent one of at least three independent experiments. The skilled person in the art will understand that the drawings, described herein, are for illustration purposes only. The drawings are not intended to limit the scope of the applicants' teachings in any way.
(§1) As mentioned above, a number of potential candidates that predominantly function in signal transduction (FIG. 2G), including DDR2, SRC, ROCK2 and MET (Table 1), were identified. Further testing with a MET inhibitor, ARQ197, was conducted to evaluate its SL properties. MDA-B6 and MDA-pc3 cells, as well as BT20-NS and BT20-shB6 cells, obtained using a method similar as described above in Example 1, were treated with increasing concentrations of ARQ197.
(In general: In flow cytometry, cells or beads pass a laser one at a time.)

The subject of another assay is MDA-B6 and MDA-pc3 cells. The assay is described as follows: Cell survival (resazurin) with MET inhibitor, MDA-MB-231-derived cells. The format is cell-based, human. To be noted: increasing concentrations, 24 hours, vs MDA-B6 (FIG. 10A). Here is the method:
(§2) FIG. 10. Analysis of EPHB6-MET SL interaction. A and B, MDA-B6 and MDA-pc3 (A) or BT2O-NS and BT20-shB6 (B) cells were treated for 24 hours with the indicated concentrations of MET inhibitor, ARQ197, or with matching concentrations of DMSO, as a control. Treated cells were stained with Resazurin for 2 h at 37° C. and cell survival was measured using a microplate reader. Data represent the analysis of triplicates and are shown as a percentage relative to matching DMSO controls. (*) Statistical analyses: Student's t test, P<0.05 for indicated points. All analyses represent one of at least three independent experiments.
as §1

Assay [2] relates to BT20-NS and BT20-shB6 cells. Nature of the assay: Cell survival (resazurin) with MET inhibitor, BT-20-derived cells. The format is cell-based, human. Particulars: increasing concentrations, 24 hours, vs BT20-NS (FIG. 10B). The procedure:
as §2, §1

Assay [3] concerns BT-20 cells (EPHB6-targeting shRNA vs non-silencing shRNA). Nature of the assay: Drug sensitivity assay (resazurin), SRC inhibitors, BT-20 cells with silenced EPHB6. To be noted: BT-20 with EPHB6-targeting shRNA vs non-silencing shRNA, 96 h (FIGS. 6A-6E). Type of assay: cell-based, human. The procedure: FIG. 6. SL relation between EPHB6 and SRC in BT-20 TNBC cells. A. Triple negative breast cancer cells, BT-20, were transduced with EPHB6-targeting shRNA (BT20-66-shRNA), or non-silencing shRNA (BT2O-NS). EPHB6 expression was analyzed by Western blotting with anti-EPHB6. Western blotting with anti-tubulin was used as a loading control. B. BT20-66-shRNA and BT2O-NS cells were cultured in 96-well plates with indicated concentrations of SU6656 or matching volumes of DMSO for 96 h. Cells were stained with resazurin and fluorescence was measured using a SpectraMax M5 plate reader to determine cell suppression. Five wells were analyzed per condition. […] C. […] Cells were stained with resazurin and fluorescence was measured using a SpectraMax M5 plate reader to determine cell suppression. Five wells were analyzed per condition. […] PI-stained cells were counted in at least 10 randomly captured frames. […] Stained cells were analyzed by flow cytometry and the FlowJo software. […]
MDA-MB-231 and BT-20 cell monolayers were incubated in 96-well plates for 72 h and 96 h, respectively, with indicated concentrations of KX2-391 or SU6656, or matching volumes of DMSO as a solvent control. Treated cells were stained using resazurin by following the manufacturer's instructions and fluorescence was measured using a SpectraMax M5 microplate reader.

The target in the next assay is SRC (Homo sapiens, UniProt P12931). The assay is described as follows: SRC inhibition in cells (anti-SRC immunoprecipitation, anti-phospho-SRC Western blot). The format is cell-based. Particulars: MDA-B6 cells, 20 μM, 40 minutes, 10% FBS (FIG. 9B). (In general: A western blot detects proteins with antibodies after separation by electrophoresis.)
Sequence of SRC (P12931 whole entry): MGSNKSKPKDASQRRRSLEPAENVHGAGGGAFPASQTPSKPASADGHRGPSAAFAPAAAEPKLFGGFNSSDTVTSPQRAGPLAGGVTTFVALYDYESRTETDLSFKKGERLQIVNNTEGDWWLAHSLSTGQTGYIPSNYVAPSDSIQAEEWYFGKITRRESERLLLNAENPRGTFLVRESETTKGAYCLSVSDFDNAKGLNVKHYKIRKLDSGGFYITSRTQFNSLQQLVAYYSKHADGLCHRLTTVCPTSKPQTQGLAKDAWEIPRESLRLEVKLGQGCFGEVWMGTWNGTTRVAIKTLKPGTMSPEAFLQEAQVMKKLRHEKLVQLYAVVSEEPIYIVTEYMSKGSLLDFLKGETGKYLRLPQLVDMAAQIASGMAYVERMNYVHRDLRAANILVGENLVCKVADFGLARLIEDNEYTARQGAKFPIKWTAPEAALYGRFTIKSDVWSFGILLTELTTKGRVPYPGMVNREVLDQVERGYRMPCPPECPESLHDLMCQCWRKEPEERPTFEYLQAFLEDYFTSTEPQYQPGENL
In assay [4] the test system is MDA-pc3 and MDA-B6 cells (MDA-MB-231). Nature of the assay: Drug sensitivity assay (resazurin), SRC inhibitors, MDA-MB-231-derived cells. To be noted: MDA-pc3 vs MDA-B6, increasing concentrations, 72 h, resazurin (FIG. 4A, 4B). Type of assay: cell-based, human. The procedure:
FIG. 4. […] C. […] All experiments were performed at least three times.
(Resazurin is reduced to fluorescent resorufin, in cell work by metabolically active cells.)

Structures are written as SMILES.

Turning to `O=C1NC(=O)[C@@H](c2cn3c4c(cccc24)CCC3)[C@@H]1c1c[nH]c2ccccc12` [ARQ197], in assay [1], the “suppression of cell populations in co-culture” value is given as “preferentially suppressed EPPBH6-deficient MDA-B6 cells”. In addition, in the assay on MDA-B6 and MDA-pc3 cells, the “cell survival of EPHB6-deficient MDA-pc3 cells” value is given as “decreased cell survival compared to MDA-B6 cells”. The “cell survival of BT20-shB6 cells” value in assay [2] is “decreased cell survival compared to BT-20 cells transduced with non-silencing shRNA”.

As to `CN(C)S(=O)(=O)c1ccc2c(c1)/C(=C/c1cc3c([nH]1)CCCC3)C(=O)N2` [SU6656], in assay [3], the “cell suppression after silencing of EPHB6 expression” value is recorded as “strongly increased their suppression”. Also, the “SRC inhibition (phospho-SRC)” value on SRC is “efficiently inhibited”. Moreover, the “cell suppression relative to DMSO control, EPHB6-deficient vs EPHB6-expressing cells” value in assay [4] was “preferentially suppressed EPHB6-deficient MDA-pc3 cells”.
